ChEMBL document CHEMBL2429866, “New aminoadamantane derivatives with antiproliferative activity” (Med Chem Res, 2013)

Legend:
[1] = Cytotoxicity against human MSC cells after 48 hrs by SRB assay; assay type: cell-based; settings: for GI50 at 48 h: MSC cells; for TGI: msc, 48 h
SF-268 = experiment: Cytotoxicity against human SF268 cells after 48 hrs by SRB assay; assay type: functional; settings: SF-268, 48 h
HCT-15 = experiment: Cytotoxicity against human HCT15 cells after 48 hrs by SRB assay; assay type: functional; settings: HCT-15, 48 h
SK-MEL-28 = experiment: Cytotoxicity against human SK-MEL-28 cells after 48 hrs by SRB assay; assay type: functional; settings: SK-MEL-28, 48 h
[2] = Cytotoxicity against human NCI-ADR-RES cells after 48 hrs by SRB assay; assay type: functional
DMS-114 = experiment: Cytotoxicity against human DMS114 cells after 48 hrs by SRB assay; assay type: functional; settings: DMS-114, 48 h
NHDF = experiment: (§1) Cytotoxicity against human NHDF cells after 48 hrs by SRB assay; assay type: cell-based; settings: nhdf, 48 h
[3] = as §1; assay type: cell-based; settings: NHDF cells
HCT-116 = experiment: Cytotoxicity against human HCT116 cells after 48 hrs by SRB assay; assay type: functional; settings: HCT-116, 48 h
U-251 = experiment: Cytotoxicity against human U251 cells after 48 hrs by SRB assay; assay type: functional; settings: U-251, 48 h
NCI-H460 = experiment: Cytotoxicity against human NCI-H460 cells after 48 hrs by SRB assay; assay type: functional; settings: NCI-H460, 48 h
MCF7 = experiment: Cytotoxicity against human MCF7 cells after 48 hrs by SRB assay; assay type: functional; settings: MCF7, 48 h
LNCaP = experiment: Cytotoxicity against human LNCAP cells after 48 hrs by SRB assay; assay type: functional
COLO 205 = experiment: Cytotoxicity against human COLO205 cells after 48 hrs by SRB assay; assay type: functional; settings: COLO 205, 48 h
DU-145 = experiment: Cytotoxicity against human DU145 cells after 48 hrs by SRB assay; assay type: functional; settings: DU-145, 48 h
PC-3 = experiment: Cytotoxicity against human PC3 cells after 48 hrs by SRB assay; assay type: functional; settings: PC-3, 48 h
[4] = Cytotoxicity against human EKVX cells after 48 hrs by SRB assay; assay type: functional
A549 = experiment: Cytotoxicity against human A549 cells after 48 hrs by SRB assay; assay type: functional; settings: A549, 48 h
MDA-MB-231 = experiment: Cytotoxicity against human MDA-MB-231 cells after 48 hrs by SRB assay; assay type: functional; settings: MDA-MB-231, 48 h
OVCAR-5 = experiment: Cytotoxicity against human OVCAR5 cells after 48 hrs by SRB assay; assay type: functional; settings: OVCAR-5, 48 h
[5] = Cytotoxicity against human CAKI cells after 48 hrs by SRB assay; assay type: functional
IGROV-1 = experiment: Cytotoxicity against human IGROV1 cells after 48 hrs by SRB assay; assay type: functional; settings: IGROV-1, 48 h

Row | Compound | GI50 (SF-268) | TGI (SF-268) | GI50 (HCT-116) | TGI (HCT-116) | GI50 (U-251) | TGI (U-251) | GI50 (NCI-H460) | TGI (NCI-H460) | GI50 (MCF7) | TGI (MCF7) | further results
1 | COc1ccc(CC23CC4CC(CC(C4)C2N)C3)cc1.Cl (stereo not drawn) | 21.2 µM | 50.7 µM | 18.5 µM | 52.2 µM | 31.2 µM | 58 µM | 31.2 µM | 62.4 µM | 7.4 µM | 42.3 µM | GI50 at 48 h [1]: 24.8 µM; TGI [1]: 56.05 µM; GI50 (HCT-15): 38.8 µM; TGI (HCT-15): 75 µM; GI50 (SK-MEL-28): 31.8 µM; TGI (SK-MEL-28): 60.7 µM; GI50 [2]: 29.3 µM; TGI [2]: 55.3 µM; GI50 (DMS-114): 40.1 µM; TGI (DMS-114): 73.9 µM; TGI (NHDF): 58.8 µM; GI50 at 48 h [3]: 27.7 µM
2 | CN(C)CCNC1C2CC3CC(C2)CC1(Cc1ccccc1)C3 (stereo not drawn) | 29.3 µM | 57.1 µM | 24 µM | 55.9 µM |  |  |  |  | 25.9 µM | 54.1 µM | GI50 (LNCaP): 24.4 µM; TGI (LNCaP): 54.7 µM; GI50 (DMS-114): 26.5 µM; TGI (DMS-114): 58.1 µM; GI50 (COLO 205): 25.4 µM; TGI (COLO 205): 59.9 µM
3 | N[C@@H]1c2ccccc2C23CC4CC(CC(C4)[C@H]12)C3 (relative stereo) |  |  |  |  | 33 µM | 56.6 µM |  |  |  |  | GI50 (DU-145): 31.4 µM; TGI (DU-145): 66.1 µM; GI50 (PC-3): 21.3 µM; TGI (PC-3): 56.7 µM
4 | c1ccc(CC23CC4CC(CC(C4)C2NCCCN2CCOCC2)C3)cc1 (stereo not drawn) | 56.4 µM | 100 µM | 44 µM | 100 µM |  |  | 50.7 µM | 100 µM | 28.9 µM | 58.5 µM | 
5 | c1ccc(CC23CC4CC(CC(C4)C2NCCCn2ccnc2)C3)cc1 (stereo not drawn) | 28.8 µM | 62.8 µM | 26.8 µM | 64.7 µM |  |  | 31.5 µM | 67.5 µM | 27 µM | 56.1 µM | 
6 | c1ccc(CC23CC4CC(CC(C4)C2NCCN2CCCCC2)C3)cc1 (stereo not drawn) | 13.1 µM | 45.9 µM | 9.94 µM | 51.7 µM |  |  | 6.32 µM | 32.2 µM | 6.75 µM | 33.2 µM | 
7 | CN(C)CCCNC1C2CC3CC(C2)CC1(Cc1ccccc1)C3 (stereo not drawn) | 9.09 µM | 40.9 µM | 6.76 µM | 34.8 µM |  |  | 5.78 µM | 25.8 µM | 9.11 µM | 42.9 µM | 
8 | Cl.NC1C2CC3CC(C2)CC1(Cc1ccccc1)C3 (stereo not drawn) | 21 µM | 56.8 µM | 6.59 µM | 35.8 µM |  |  |  |  | 5.5 µM | 9.5 µM | GI50 at 48 h [1]: 9.55 µM; TGI [1]: 45.56 µM; GI50 (DU-145): 6.68 µM; TGI (DU-145): 29.8 µM; GI50 [2]: 6.7 µM; TGI [2]: 30 µM; GI50 [4]: 6.94 µM; TGI [4]: 29.2 µM; GI50 (A549): 8.67 µM; TGI (A549): 43.7 µM; GI50 (MDA-MB-231): 6.68 µM; TGI (MDA-MB-231): 46.6 µM; GI50 (OVCAR-5): 8.35 µM; TGI (OVCAR-5): 37.8 µM; GI50 [5]: 6.54 µM; TGI [5]: 26.8 µM; GI50 (IGROV-1): 7.6 µM; TGI (IGROV-1): 36.5 µM; GI50 (COLO 205): 7.12 µM; TGI (COLO 205): 33.2 µM
9 | O=c1[nH]cc(F)c(=O)[nH]1 [FLUOROURACIL] | 49.2 µM | > 100 µM | 9.51 µM | > 100 µM |  |  | 5.95 µM | > 100 µM | 8.4 µM | > 100 µM | 
10 | c1ccc2c(c1)CNC1C3CC4CC(C3)CC21C4 (stereo not drawn) | 100 µM | 100 µM | 63.9 µM | 100 µM |  |  | 100 µM | 100 µM | 52 µM | 100 µM | 
11 | c1ccc(CC23CC4CC(CC(C4)C2NCCN2CCNCC2)C3)cc1 (stereo not drawn) | 22.2 µM | 53.6 µM | 7.02 µM | 50 µM |  |  | 7.49 µM | 46.8 µM | 21.1 µM | 52.7 µM | 
12 | Cl.NC1C2CC3CC(C2)CC1(Cc1ccc(F)cc1)C3 (stereo not drawn) | 7.83 µM | 37.4 µM | 5.6 µM | 17.5 µM | 21.8 µM | 50.9 µM | 13.7 µM | 52 µM | 4.6 µM | 8.7 µM | GI50 (HCT-15): 19.4 µM; TGI (HCT-15): 53.8 µM; GI50 (SK-MEL-28): 13.2 µM; TGI (SK-MEL-28): 45 µM; GI50 [2]: 7.4 µM; TGI [2]: 24.4 µM; GI50 (DMS-114): 9.38 µM; TGI (DMS-114): 50.4 µM; TGI (NHDF): 52.8 µM; GI50 at 48 h [3]: 17.9 µM
13 | COc1cc([C@@H]2c3cc4c(cc3[C@@H](O[C@@H]3O[C@@H]5CO[C@@H](C)O[C@H]5[C@H](O)[C@H]3O)[C@H]3COC(=O)[C@H]23)OCO4)cc(OC)c1O [ETOPOSIDE] | 4.21 µM | 92.7 µM |  |  |  |  |  |  |  |  | 
14 | NC1C2CC3CC(C2)CC1(c1ccccc1)C3 (stereo not drawn) | 100 µM | 100 µM |  |  | 100 µM | 100 µM | 100 µM | 100 µM | 69.3 µM | 100 µM | GI50 (DU-145): 100 µM; TGI (DU-145): 100 µM; GI50 (PC-3): 82.9 µM; TGI (PC-3): 89.3 µM; GI50 (COLO 205): 84.5 µM; TGI (COLO 205): 100 µM
15 | N[C@H]1c2ccccc2C23CC4CC(CC(C4)[C@H]12)C3 (relative stereo) |  |  |  |  | 31.2 µM | 56.2 µM |  |  | 32.6 µM | 62.5 µM | GI50 (DU-145): 26.6 µM; TGI (DU-145): 37.6 µM; GI50 (LNCaP): 28.5 µM; TGI (LNCaP): 61.2 µM; GI50 (COLO 205): 35 µM; TGI (COLO 205): 69.9 µM
